# Where a name gives a salt, the structure may show the parent alone.
# Legend:
# [1] = biological target: Human CB2R (Cannabinoid receptor 2) (Homo sapiens (Human), UniProt P34972); test: CB-2 in vitro cAMP assay (HTRF), inverse agonism; type: cell-based; conditions: mean where tested more than once
# Description: (§1) CB1 and CB2 receptors are Gi-coupled GPCR. Activation of CB1 and CB2 receptors results in a decrease in cAMP production. An inverse agonist of the CB1 or CB2 receptor results in the opposite effect, an increase of cAMP production. The principle of this assay is based on HTRF® technology (Homogeneous Time-Resolved Fluorescence). The method is a competitive immunoassay between native cAMP produced by cells and the cAMP labeled with the fluorophore d2. The tracer binding is quantified by a Mab anti-cAMP labeled with Eu3+TBP-NHS Cryptate (supplied as part of the assay kit). The specific signal (i.e. energy transfer) is inversely proportional to the concentration of cAMP in the standard or sample.
# (§2) Human CB1R (Cannabinoid receptor 1) was stably transfected in HEK-293 cells (DiscoveRx, cat: 93-0200C1). Human CB2R (Cannabinoid receptor 2) was stably transfected in HEK-293 cells (DiscoveRx, cat: 93-0201C1). Cell cultures were maintained in media: DMEM (Invitrogen Cat#12430-054) supplemented with 10% HI FBS (Invitrogen Cat#16140-071), 1% L-glutamine (Invitrogen Cat#25030-081), 0.2 mg/ml Hygromycin B (Invitrogen Cat#10687-010), 600 μg/mL G418 (Invitrogen Cat#10131-035), and 1X Penn/Strep (Invitrogen 15140-122). After cell expansion, aliquots were cryo-stored in media containing 5% DMSO (Pierce Cat#20684).
# (§3) One day prior to experiments media was warmed to 37° C. and the cryo-stored cells were thawed in a 37° C. water bath. The cells were then added to media (10× volume) and the mixture was centrifuged at 1000 RPM for 5 min. The supernate was removed and the cells were re-suspended in media. A sample of the cell suspension was evaluated on a Cedex XS automated cell counter (Innovatis Systems) to determine viable cells/ml. Additional media was added to the cells to achieve a final cell density of 4E5 cells/mL. The cells were then plated into 384 well PDL white solid bottom plates (Greiner, Cat#781945) at 20 μL per well using a Multidrop (Thermo Scientific). Cells were removed from Row P (location of cAMP standards). Two columns of cells were plated into a clear bottom 384 well PDL coated plate (Greiner, Cat#781944) to view confluence the day of the assay. The cell plates were lidded and stored for 15 minutes in a hood, then transferred to an incubator (37° C., 5% CO2, 95% humidity) overnight.
# (§4) DMSO was added to all wells of 384 well V bottom polystyrene plate (Greiner, Cat#781280) except to columns 1 and 13, rows 0 and P and wells M13-M23 and N13-N23. Test compounds (60 μL, 10 mM) were added to Column 1 and 13 (A1 through N1 and A13 through L13). Test compounds were serially diluted 1/3 by transferring and mixing 20 μl sample with 40 μL DMSO.
# (§5) DMSO (40 μL) was added to wells of 384 well V bottom polystyrene plate: O2 through O11, M14 through M23, N14 through N23, and O14 through O23. AM630 (also known as [6-iodo-2-methyl-1-[2-(4-morpholinyl)ethyl]-1H-indol-3-yl](4-methoxyphenyl)-methanone, Cayman Chemical, Cat#10006974) (60 μL, 10 mM) was added to 01; and 1-(2,4-dichlorophenyl)-7-[(4-fluorophenyl)methylene]-4,5,6,7-tetrahydro-N-1-piperidinyl-1H-indazole-3-carboxamide (60 μL, 10 mM) was added to N13. The control was serially diluted 1/3 by transferring and mixing 20 μl sample with 40 μL DMSO. This process resulted 11 doses per control, 10 mM to […].
# (§6) Cells plated the day prior to the assay in clear bottom plates were viewed on an inverse microscope to ensure confluency in the range of 60-75%. […]
# [2] = biological target: Human CB1R (Cannabinoid receptor 1) (Homo sapiens (Human), UniProt P21554); test: CB-1 in vitro cAMP assay (HTRF), inverse agonism; type: cell-based; conditions: mean where tested more than once
# Sequence of Human CB1R (Cannabinoid receptor 1) (P21554 whole entry): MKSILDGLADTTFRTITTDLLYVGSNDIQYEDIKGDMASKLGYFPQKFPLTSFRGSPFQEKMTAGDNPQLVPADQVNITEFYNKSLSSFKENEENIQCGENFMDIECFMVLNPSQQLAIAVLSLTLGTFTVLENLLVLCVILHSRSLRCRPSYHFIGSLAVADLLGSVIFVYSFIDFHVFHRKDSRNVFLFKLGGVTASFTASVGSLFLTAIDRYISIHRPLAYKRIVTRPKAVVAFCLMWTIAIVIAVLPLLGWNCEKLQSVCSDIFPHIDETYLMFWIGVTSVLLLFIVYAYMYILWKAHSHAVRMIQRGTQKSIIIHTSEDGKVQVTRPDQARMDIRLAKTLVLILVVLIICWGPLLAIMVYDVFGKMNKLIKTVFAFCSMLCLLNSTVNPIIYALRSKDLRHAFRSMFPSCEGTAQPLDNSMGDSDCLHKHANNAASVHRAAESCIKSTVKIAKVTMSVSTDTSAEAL
# Description: as §1, §2, §3, §4, §5, §6
# Sequence of Human CB2R (Cannabinoid receptor 2) (P34972 whole entry): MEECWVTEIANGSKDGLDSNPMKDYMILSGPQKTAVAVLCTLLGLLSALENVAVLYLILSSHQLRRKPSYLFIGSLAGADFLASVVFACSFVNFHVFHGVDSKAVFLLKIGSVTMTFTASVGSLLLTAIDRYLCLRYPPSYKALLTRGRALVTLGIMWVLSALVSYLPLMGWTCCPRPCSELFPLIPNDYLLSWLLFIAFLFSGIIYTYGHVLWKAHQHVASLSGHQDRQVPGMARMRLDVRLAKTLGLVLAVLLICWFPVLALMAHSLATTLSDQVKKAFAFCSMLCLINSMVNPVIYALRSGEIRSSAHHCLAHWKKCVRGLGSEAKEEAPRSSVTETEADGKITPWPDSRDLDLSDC
Structure (SMILES),EC50 [1] [nM],EC50 [2] [nM]
"O=c1cc(Nc2cccc(C(F)(F)F)c2)c2cc(C(c3ccc(Cl)cc3)c3ccc(Cl)cc3)ccc2[nH]1 [Compound 75, 6-[Bis(4-chlorophenyl)methyl]-4-{[3-(trifluoromethyl)phenyl]amino}-quinolin-2(1H)-one]",> 10000,25
"O=c1cc(/C=C/c2cccc(F)c2)c2cc(C(c3ccc(Cl)cc3)c3ccc(Cl)cc3)ccc2[nH]1 [Compound 15, 6-[Bis(4-chlorophenyl)methyl]-4-[(E)-2-(3-fluorophenyl)ethenyl]quinolin-2(1H)-one]",660,702
"NC(=O)CCCCOc1cc(C(c2ccc(Cl)cc2)c2ccc(Cl)cc2)cc2c(NC3CCN(S(=O)(=O)C(F)(F)F)CC3)ccnc12 [Compound 538, 5-((6-(bis(4-chlorophenyl)methyl)-4-((1-((trifluoromethyl)sulfonyl)piperidin-4-yl)amino)quinolin-8-yl)oxy)pentanamide]",8630,51
"CC(=O)NCCCCOc1cc(C(c2ccc(Cl)cc2)c2ccc(Cl)cc2)cc2c(NC3CCN(S(=O)(=O)C(F)(F)F)CC3)ccnc12 [Compound 543, N-(4-((6-(bis(4-chlorophenyl)methyl)-4-((1-((trifluoromethyl)sulfonyl)piperidin-4-yl)amino)quinolin-8-yl)oxy)butyl)acetamide, trifluoroacetic acid salt]",> 10000,102
"CC(=O)N1CCN(c2cc(OS(=O)(=O)C(F)(F)F)nc3ccc(C(c4ccc(Cl)cc4)c4nccs4)cc23)CC1 (centres unmarked) [Compound 522, 4-(4-Acetylpiperazin-1-yl)-6-[(4-chlorophenyl)(1,3-thiazol-2-yl)methyl]quinolin-2-yl trifluoromethanesulfonate]",> 10000,> 10000
"NC(=O)COc1ccc(Nc2cc(=O)[nH]c3ccc(C(c4ccc(Cl)cc4)c4ccc(Cl)cc4)cc23)cc1 [Compound 111, 2-(4-((6-(bis(4-chlorophenyl)methyl)-2-oxo-1,2-dihydroquinolin-4-yl)amino)phenoxy)acetamide]",> 10000,99
"NCCCCNc1cc(C(c2ccc(Cl)cc2)c2ccc(Cl)cc2)cc2c(NC3CCN(S(=O)(=O)C(F)(F)F)CC3)cc(=O)[nH]c12 [Compound 141, 8-((4-aminobutyl)amino)-6-(bis(4-chlorophenyl)methyl)-4-((1-((trifluoromethyl)sulfonyl)piperidin-4-yl)amino)quinolin-2(1H)-one]",> 10000,625
"COCCCc1cc(C(c2ccc(Cl)cc2)c2ccc(Cl)cc2)cc2c(NC3CCN(S(=O)(=O)C(F)(F)F)CC3)cc(=O)[nH]c12 [Compound 140, 6-(bis(4-chlorophenyl)methyl)-8-(3-methoxypropyl)-4-((1-((trifluoromethyl)sulfonyl)piperidin-4-yl)amino)quinolin-2(1H)-one]",60,13
"O=c1cc(NC2CCN(S(=O)(=O)C(F)(F)F)CC2)c2cc(C(c3ccc(Cl)cc3)c3ccc(Cl)cc3)cc(Br)c2[nH]1 [Compound 92, 6-(bis(4-chlorophenyl)methyl)-8-bromo-4-((1-((trifluoromethyl)sulfonyl)piperidin-4-yl)amino)quinolin-2(1H)-one]",50,10
"COC(=O)Cc1ccc(Nc2cc(=O)[nH]c3ccc(C(c4ccc(Cl)cc4)c4ccc(Cl)cc4)cc23)cc1 [Compound 124, Methyl [4-({6-[bis(4-chlorophenyl)methyl]-2-oxo-1,2-dihydroquinolin-4-yl}amino)phenyl]acetate]",> 10000,27
"Clc1ccc(C(c2ccc3nccc(/C=C/c4ccccc4)c3c2)c2nccs2)cc1 (centres unmarked) [Compound 511, (E)-2((4-chlorophenyl)(4-styrylquinolin-6-yl)methyl)thiazole]",> 10000,136
"CC(Nc1cc(=O)[nH]c2ccc(C(c3ccc(Cl)cc3)c3ccc(Cl)cc3)cc12)c1cccc(C(F)(F)F)c1 (centres unmarked) [Compound 74, 6-[Bis(4-chlorophenyl)methyl]-4-({1-[3-(trifluoromethyl)phenyl]ethyl}amino)quinolin-2(1H)-one]",> 10000,36
"Cn1c(=O)cc(NC2CCN(S(=O)(=O)C(F)(F)F)CC2)c2cc(C(c3ccc(Cl)cc3)c3nccs3)ccc21 (centres unmarked) [Compound 89, 6-[(4-chlorophenyl)(1,3-thiazol-2-yl)methyl]-1-methyl-4-[[1-(trifluoromethane)sulfonylpiperidin-4-yl]amino]-1,2-dihydroquinolin-2-one]",9900,14
"O=c1cc(NC2CCCCC2)c2cc(C(c3ccc(Cl)cc3)c3ccc(Cl)cc3)ccc2[nH]1 [Compound #71, 6-(bis(4-chlorophenyl)methyl)-4-(cyclohexylamino)quinolin-2(1H)-one]",> 10000,7
O=c1cc(Nc2ccc(CC(F)(F)F)cc2)c2cc(C(c3ccc(Cl)cc3)c3ccc(Cl)cc3)cc(Br)c2[nH]1 [Compound 93],> 10000,15
"CNC(=O)COc1cc(NC2CCN(S(=O)(=O)C(F)(F)F)CC2)c2cc(C(c3ccc(Cl)cc3)c3ccc(Cl)cc3)ccc2n1 [Compound 533, 2-({6-[Bis(4-chlorophenyl)methyl]-4-({1-[(trifluoromethyl)sulfonyl]-piperidin-4-yl}amino)quinolin-2-yl}oxy)-N-methylacetamide]",> 10000,38
"O=c1cc(NC2CCN(S(=O)(=O)N3CCCC3)CC2)c2cc(C(c3ccc(Cl)cc3)c3ccc(Cl)cc3)ccc2[nH]1 [Compound 81, 6-(bis(4-chlorophenyl)methyl)-4-((1-(pyrrolidin-1-ylsulfonyl)piperidin-4-yl)amino)quinolin-2(1H)-one]",> 10000,15
"O=c1cc(NC2CCN(S(=O)(=O)C(F)(F)F)CC2)c2cc(C(Oc3ccc(Cl)cc3)c3ccc(Cl)cc3)ccc2[nH]1 (centres unmarked) [Compound #136, 6-[4-chlorophenoxy(4-chlorophenyl)methyl]-4-[[1-(trifluoromethane)sulfonylpiperidin-4-yl]amino]-1,2-dihydroquinolin-2-one]",> 10000,122
"O=c1cc(NC2CCN(S(=O)(=O)C(F)(F)F)CC2)c2cc(C(c3ccc(Cl)cc3)c3ccc(C(F)(F)F)cc3)ccc2[nH]1 (centres unmarked) [Compound 62, 6-{(4-Chlorophenyl)[4-(trifluoromethyl)phenyl]methyl}-4-({1-[(trifluoromethyl)sulfonyl]-piperidin-4-yl}amino)quinolin-2(1H)-one]",3230,29
"O=S(=O)(N1CCC(Nc2ccnc3c(Br)cc(C(c4ccc(Cl)cc4)c4ccc(Cl)cc4)cc23)CC1)C(F)(F)F [Compound 524, 6-(bis(4-chlorophenyl)methyl)-8-bromo-N-(1-((trifluoromethyl)sulfonyl)piperidin-4-yl)quinolin-4-amine]",180,12
"CCOC(=O)CS(=O)(=O)N1CCC(Nc2cc(=O)[nH]c3ccc(C(c4ccc(Cl)cc4)c4ccc(Cl)cc4)cc23)CC1 [Compound 102, ethyl 2-((4-((6-(bis(4-chlorophenyl)methyl)-2-oxo-1,2-dihydroquinolin-4-yl)amino)piperidin-1-yl)sulfonyl)acetate]",> 10000,17
"CC(C)(C)OC(=O)COc1cc(NC2CCN(S(=O)(=O)C(F)(F)F)CC2)c2cc(C(c3ccc(Cl)cc3)c3ccc(Cl)cc3)ccc2n1 [Compound 531, tert-Butyl ({6-[bis(4-chlorophenyl)methyl]-4-({1-[(trifluoromethyl)sulfonyl]-piperidin-4-yl}amino)quinolin-2-yl}oxy)acetate]",> 10000,> 10000

# Reference: patent US9266835B2, “Quinoline derivatives useful as CB-1 inverse agonists” (JANSSEN PHARMACEUTICA NV, priority 2014, dated 2016)
